Results: ChEMBL document CHEMBL5614415, “Recent advances and challenges of revolutionizing drug-resistant tuberculosis treatment” (Eur J Med Chem, 2024)
Converted amounts (≈) assume the structure as drawn.

Tests used:
[1] = tested on: Mycobacterium tuberculosis; test: Antibacterial activity against Mycobacterium tuberculosis H37Rv assessed as reduction in bacterial growth measured after 7 days by broth micro-dilution method; assay type: functional; settings: 168 h, time 7 day
Staphylococcus aureus = test: Antibacterial activity against Staphylococcus aureus assessed as reduction in microbial growth by CLSI protocol based broth micro-dilution method; assay type: functional
[2] = tested on: Mycobacterium tuberculosis; test: Antimycobacterial activity against Mycobacterium tuberculosis H37Rv ATCC 27294 assessed as reduction in bacterial cell growth; assay type: functional
[3] = tested on: Mycobacterium tuberculosis; test: Antimycobacterial activity against Mycobacterium tuberculosis; assay type: functional
[4] = tested on: Mycobacterium tuberculosis; test: Antimycobacterial activity against Mycobacterium tuberculosis H37Rv assessed as reduction in bacterial cell growth by resazurin reduction method; assay type: functional
[5] = tested on: Mycobacterium tuberculosis; test: Antibacterial activity against Mycobacterium tuberculosis H37Rv; assay type: functional
[6] = tested on: Mycobacterium tuberculosis; test: Antimycobacterial activity against Mycobacterium tuberculosis H37Rv assessed as reduction in bacterial growth after 7 days by resazurin based fluorescence assay; assay type: functional; settings: 168 h, time 7 day
[7] = tested on: Mycobacterium tuberculosis; test: Antimicrobial activity against Mycobacterium tuberculosis H37Rv ATCC 27294 assessed as inhibition of bacterial growth incubated for […] by broth dilution method; assay type: functional; settings: time lower 18 hrs
Mycobacterium avium = test: Antimycobacterial activity against Mycobacterium avium assessed as bacterial growth inhibtion; assay type: functional
[8] = tested on: Mycobacterium tuberculosis; test: Antimycobacterial activity against Mycobacterium tuberculosis assessed as reduction in bacterial growth; assay type: functional
[9] = tested on: Mycolicibacterium smegmatis; test: Antimicrobial activity against Mycobacterium smegmatis ATCC 700084 assessed as bacterial growth inhibition; assay type: functional
[10] = tested on: Mycobacterium tuberculosis; test: Antibacterial activity against wild type Mycobacterium tuberculosis H37Rv infected in BALB/c mouse assessed as log reduction in colony forming units at 20 mg/kg; assay type: functional
[11] = tested on: Mycolicibacterium smegmatis; test: Antimycobacterial activity against Mycobacterium smegmatis mc2 155 assessed as reduction in bacterial cell growth by resazurin reduction method; assay type: functional
[12] = tested on: Mycobacterium tuberculosis; test: Antibacterial activity against Mycobacterium tuberculosis ATCC 35801 assessed as inhibition of bacterial growth incubated for 7 days by resazurin microtiter assay; assay type: functional; settings: ATCC 35801, 168 h, time 7 day
[13] = tested on: Mycobacterium tuberculosis; test: Antimycobacterial activity against Mycobacterium tuberculosis H37Rv ATCC 27294 assessed as reduction in bacterial cell growth by resazurin reduction method; assay type: functional
[14] = tested on: Mycobacterium tuberculosis; test: Antitubercular activity against Mycobacterium tuberculosis H37Ra assessed as inhibition of bacterial growth incubated for 7 days by Microdilution Alamar Blue assay; assay type: functional; settings: 168 h, time 7 day
[15] = tested on: Mycobacterium tuberculosis; test: Antimycobacterial activity against Mycobacterium tuberculosis assessed as bacterial growth inhibition; assay type: functional
[16] = tested on: Mycobacterium tuberculosis; test: Antimycobacterial activity against Mycobacterium tuberculosis […] assessed as reduction in bacterial growth; assay type: functional
Cytochrome P450 2C9 = Cytochrome P450 2C9 (Homo sapiens, UniProt P11712); test: Inhibition of CYP2C9 (unknown origin); assay type: ADME
[17] = tested on: Mycobacterium tuberculosis; test: Antibacterial activity against Mycobacterium tuberculosis H37Rv assessed as bacterial growth inhibition by CLSI broth microdilution method; assay type: functional
Salmonella typhimurium = test: Antibacterial activity against Salmonella typhimurium DT104 assessed as inhibition of bacterial growth incubated for 18 hrs by CLSI protocol based microbroth dilution method; assay type: functional, Salmonella enterica subsp. enterica serovar Typhimurium; settings: Salmonella enterica

Chain of Cytochrome P450 2C9 (P11712 whole entry): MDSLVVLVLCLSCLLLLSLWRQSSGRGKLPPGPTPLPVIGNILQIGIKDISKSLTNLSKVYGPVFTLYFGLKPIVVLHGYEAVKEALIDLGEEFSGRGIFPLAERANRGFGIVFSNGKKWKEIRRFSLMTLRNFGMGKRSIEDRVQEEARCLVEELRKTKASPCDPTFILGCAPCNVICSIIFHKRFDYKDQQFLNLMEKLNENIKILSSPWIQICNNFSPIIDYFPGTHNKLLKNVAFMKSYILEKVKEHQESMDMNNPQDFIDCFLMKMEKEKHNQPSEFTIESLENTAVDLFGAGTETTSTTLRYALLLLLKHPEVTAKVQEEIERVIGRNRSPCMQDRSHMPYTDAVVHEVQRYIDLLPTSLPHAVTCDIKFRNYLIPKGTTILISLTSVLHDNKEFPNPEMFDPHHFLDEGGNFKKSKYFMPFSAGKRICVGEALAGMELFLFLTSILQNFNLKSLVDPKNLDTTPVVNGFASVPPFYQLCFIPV

For `OC1CCN(C2CCN(CC34CC5CC(CC(C5)C3)C4)CC2)CC1`, the MIC90 [1] was > 10 mg/L.
In the case of `CN1CCN(c2ccc(N3C[C@H](CO)OC3=O)cc2F)C=N1` [DELPAZOLID], the MIC50 (Staphylococcus aureus) is reported as 0.5 mg/L and the MIC50 [2] is reported as 0.5 mg/L (≈ 1.62 µM).
`CN[C@@H]1[C@H](O)[C@H](NC)[C@H]2O[C@@]3(O)[C@H](NC(=O)Cc4ccc(F)cn4)C[C@@H](C)C[C@H]3O[C@@H]2[C@H]1O` showed an MIC50 [3] of 0.8 mg/L (≈ 1.71 µM).
`CC(=O)N1/C(=C/c2ccc(Br)cc2)C(=O)c2ccccc21` gave an MIC99 [4] of 0.42 mg/L (≈ 1.23 µM).
For `O=[N+]([O-])c1cn2c(n1)OC[C@@H](OCc1ccc(-c3ccc(C(F)(F)F)cc3)nc1)C2`, the MIC50 [5] was < 0.015 mg/L.
Work on `O=C(Nc1nc(-c2ccccn2)cs1)c1ccc(Cl)s1` yielded an MIC50 [6] of 0.25 mg/L (≈ 0.777 µM).
`c1cc2cc(-c3ccc(-c4cc5ccc(C6=NCCN6)cc5[nH]4)cc3)[nH]c2cc1C1=NCCN1` gave an MIC50 [7] of 0.04 mg/L (≈ 0.09 µM).
For `COc1nc2ccc(Br)cc2cc1[C@@H](c1ccccc1)[C@@](O)(CCN(C)C)c1cccc2ccccc12` [BEDAQUILINE], the MIC50 (Mycobacterium avium) was 0.01 mg/L (≈ 0.018 µM) and the MIC50 [8] was 0.01 mg/L (≈ 0.018 µM).
With `CC(C)=CCC/C(C)=C/CNCCNC1C2CC3CC(C2)CC1C3` (configuration not stated) [SQ109] the MIC50 [3] was 0.12 mg/L (≈ 0.363 µM).
In the case of `COc1cc([C@](O)(CCN(C)C)[C@@H](c2cc3cc(Br)ccc3nc2OC)c2cccc(OC)c2F)cc(OC)n1` [TBAJ-587], the MIC50 [9] is reported as < 0.02 mg/L, the MIC50 (Mycobacterium avium) is reported as 0.006 mg/L (≈ 0.00976 µM) and the “log(activity)” value [10] is reported as 4.5.
Work on `O=C1CCc2c(OC[C@]3(O)CCN(c4c(F)cc(Cl)cc4F)C[C@H]3O)ccc(F)c2N1` [QUABODEPISTAT] yielded an MIC50 [3] of 0.00024 mg/L (≈ 0.000525 µM).
`CCc1nc2ccc(Cl)cn2c1C(=O)NCc1ccc(N2CCC(c3ccc(OC(F)(F)F)cc3)CC2)cc1` [TELACEBEC] gave an MIC90 [11] of 0.0024 mg/L (≈ 0.00431 µM).
`C(=C\c1cc2ccc(C3=NCCN3)cc2[nH]1)/c1cc2ccc(C3=NCCN3)cc2[nH]1` was tested, and the MIC50 [7] was 0.03 mg/L (≈ 0.076 µM).
`COc1cc([C@](O)(CCN(C)C)[C@@H](c2cc3cc(Br)ccc3nc2OC)c2cc(OC)nc(OC)c2OC)cc(OC)n1` [TBAJ-876] was tested, and the MIC50 (Mycobacterium avium) was 5 mg/L (≈ 7.6 µM).
Molecule `CC(=O)N1/C(=C/c2ccc(-c3ccccc3)cc2)C(=O)c2ccccc21` has an MIC99 [4] of 0.38 mg/L (≈ 1.12 µM).
For `CCNC(=O)Nc1nc2cc(-c3cnc(C(C)(C)O)nc3)c(F)c([C@H]3CCCO3)c2[nH]1`, the MIC50 [12] was 0.03 mg/L (≈ 0.07 µM).
In the case of `c1ccc(CC2CCN(CC3CCN(CC45CC6CC(CC(C6)C4)C5)CC3)CC2)cc1`, the MIC90 [1] is reported as 7 mg/L (≈ 16.6 µM).
Work on `OC1CCN(CC2CCN(CC34CC5CC(CC(C5)C3)C4)CC2)CC1` yielded an MIC90 [1] of 4 mg/L (≈ 11.5 µM).
`CCN(CC)CCOc1c(C(=O)OC)c2c3c(oc2c2ccccc12)C(=O)c1ccccc1C3=O` gave an MIC50 [13] of 0.19 mg/L (≈ 0.403 µM).
For `O=C(Oc1ccccc1)c1ccsc1NC(=O)C1CCCN1` (configuration not stated), the MIC50 [14] was 2.4 mg/L (≈ 7.59 µM).
Molecule `C[C@]1(COc2ccc(N3CCC(Oc4ccc(OC(F)(F)F)cc4)CC3)cc2)Cn2cc([N+](=O)[O-])nc2O1` [DELAMANID] has an MIC50 [5] of 0.006 mg/L (≈ 0.0112 µM).
In the case of `OC1CCN(CC2CCN(Cc3ccccc3)CC2)CC1`, the MIC90 [1] is reported as 6.2 mg/L (≈ 21.5 µM).
`O=[N+]([O-])c1cn2c(n1)OC[C@@H](OCc1ccc(OC(F)(F)F)cc1)C2` [PRETOMANID] showed an MIC50 [5] of 0.015 mg/L (≈ 0.0418 µM).
For `CC(=O)NC[C@H]1CN(c2ccc(N3CCOCC3)c(F)c2)C(=O)O1` [LINEZOLID], the MIC50 (Staphylococcus aureus) was 0.3 mg/L and the MIC50 [15] was 0.3 mg/L (≈ 0.889 µM).
Work on `O=C(OCc1ccccc1)c1ccsc1NC(=O)C1CCCN1` (configuration not stated) yielded an MIC50 [14] of 1.3 mg/L (≈ 3.93 µM).
`CCCCc1ccc(NC(=O)C2=CCN(C)[C@@H]([C@H](O[C@@H]3O[C@H](CN)[C@@H](O)[C@H]3O)[C@H]3O[C@@H](n4ccc(=O)[nH]c4=O)[C@H](O)[C@@H]3O)C(=O)N2C)cc1` showed an MIC50 [16] of 3.13 mg/L (≈ 4.54 µM).
With `c1cc2cc(-c3ccc4cc(C5=NCCN5)[nH]c4c3)[nH]c2cc1C1=NCCN1` the MIC50 [7] was 0.08 mg/L (≈ 0.217 µM).
`CC(=O)N1/C(=C/c2ccc(Oc3ccc(Cl)cc3)cc2)C(=O)c2cc(Cl)ccc21` was tested, and the MIC99 [4] was 0.13 mg/L (≈ 0.306 µM).
`CCOC(=O)NC(=O)c1cc(F)sc1NC(=O)c1nc2ccccc2s1` showed an IC50 (Cytochrome P450 2C9) of 0.15 µM.
`COc1ncnc(Cn2cc(C(=O)NCCO)c3ncc(C)cc32)c1C` [TBA-7371] showed an MIC50 [16] of 0.28 mg/L (≈ 0.788 µM).
`CC1(C)CCC(NC(=O)c2cc3c(Cl)cc(Cl)cc3[nH]2)CC1` gave an MIC50 [17] of 0.005 mg/L (≈ 0.0147 µM).
With `CC(=O)N1/C(=C/c2cccc(-c3ccccc3)c2)C(=O)c2ccccc21` the MIC99 [4] was 0.69 mg/L (≈ 2.03 µM).
With `OC1CCN(CC2CCC(CNCc3ccccc3)CC2)CC1` (configuration not stated) the MIC90 [1] was > 12 mg/L.
In the case of `COc1c(N2CC3(CC3)[C@@](C)(N)C2)c(F)cc2c(=O)c(C(=O)O)cn(C3C[C@H]3F)c12` (some centres not stated), the MIC90 (Salmonella typhimurium) is reported as 0.06 mg/L (≈ 0.143 µM).
`CC(=O)N1/C(=C/c2ccc(Oc3ccc(Cl)cc3)cc2)C(=O)c2ccccc21` gave an MIC99 [4] of 0.18 mg/L (≈ 0.462 µM).
`CCCCCCCCCC(=O)C[C@@H]1[C@H](OC)C([C@@H](O[C@H]2OC(C(=O)N[C@H]3CCC[C@@H](C)NC3=O)=C[C@H](O)[C@@H]2O)C(N)=O)O[C@H]1n1ccc(=O)[nH]c1=O` (some centres not stated) was tested, and the MIC50 [16] was 1 mg/L (≈ 1.36 µM).
`CC(=O)NC[C@H]1CN(c2ccc(N3CCSCC3)c(F)c2)C(=O)O1` [SUTEZOLID] showed an MIC50 (Staphylococcus aureus) of 0.03 mg/L and an MIC50 [15] of 0.03 mg/L (≈ 0.0849 µM).
With `CCOC(=O)NC(=O)c1ccsc1NC(=O)c1nc2cccnc2s1` the IC50 (Cytochrome P450 2C9) was 0.13 µM.
For `CCOc1cc([C@](O)(CCN(C)C)[C@@H](c2cc3cc(Br)ccc3nc2OC)c2cccc(OC)c2F)cc(OC)n1`, the “log(activity)” value [10] was 1.5.
With `CC(=O)N1/C(=C/c2ccc(-c3ccsc3)cc2)C(=O)c2ccccc21` the MIC99 [4] was 0.16 mg/L (≈ 0.463 µM).
In the case of `OC1CCN(C2CCN(Cc3ccccc3)CC2)CC1`, the MIC90 [1] is reported as > 10 mg/L.
In the case of `OCC1CCCN1CC1CCN(CC23CC4CC(CC(C4)C2)C3)CC1` (configuration not stated), the MIC90 [1] is reported as > 10 mg/L.
`COC(=O)c1ccsc1NC(=O)C1CCCN1` (configuration not stated) was tested, and the MIC50 [14] was 0.8 mg/L (≈ 3.15 µM).
In the case of `CN[C@@H]1[C@H](O)[C@H](NC)[C@H]2O[C@@]3(O)[C@H](NC(=O)Cc4ccc(Cl)cn4)C[C@@H](C)C[C@H]3O[C@@H]2[C@H]1O`, the MIC50 [3] is reported as 1.6 mg/L (≈ 3.3 µM).
In the case of `CCOC(=O)NC(=O)c1ccsc1NC(=O)c1ccn2cnnc2c1`, the IC50 (Cytochrome P450 2C9) is reported as > 10 µM.
Work on `c1cc2cc(-c3ccc4cc(-c5ccc6oc(C7=NCCN7)cc6c5)[nH]c4c3)[nH]c2cc1C1=NCCN1` yielded an MIC50 [7] of 0.02 mg/L (≈ 0.0413 µM).
